Assay results as given in patent US8822691B2, “Pesticidal carboxamides” (Bayer CropScience AG, priority 2009, dated 2014).
Like-named read-outs stand apart in the source and are kept apart here.

Legend:
Spodoptera litura = assay: Test against tobacco cutworm (Spodoptera litura) larvae, leaf dip; format: in vivo; settings: active compound concentration of 100 ppm, third instar larvae on sweet potato leaves, after 7 days; for pest or weed control at 100 ppm: foliar, 168 h, read-out: insecticidal activity
Protocol: (§1) Unless not mentioned otherwise, the test solutions were prepared as follows:
(§2) Containing as solvent: Dimethylformamide, 3 parts by weight; and as emulsifier: Polyoxyethylene alkyl phenyl ether, 1 part by weight
(§3) To prepare the test solution, 1 part by weight of an active compound is mixed with the above-mentioned amount of solvent containing the above-mentioned amount of emulsifier, and the mixture is diluted with water to the desired concentration.
Leaves of sweet potato were immersed in the test solution at the appropriate concentration, and the leaves were dried in air. The leaves were then placed in a petri dish having a diameter of 9 cm, and ten Spodoptera litura at third instar larvae were released therein. The petri dishes were placed in a temperature-controlled chamber at 25° C. After 2 days and 4 days more sweet potato leaves were added. After 7 days, the number of dead larvae was counted to calculate the insecticidal activity. An insecticidal activity of 100% means that all larvae were killed, whereas an insecticidal activity of 0% means that no larva was killed. In the current test, the results of two petri dishes for each treatment were averaged.

Aulacophora femoralis = assay: Test against cucurbit leaf beetle (Aulacophora femoralis), leaf dip; format: in vivo; settings: for pest or weed control at 500 ppm: Aulacophora, foliar, 168 h, read-out: insecticidal activity
Protocol: as §1, §2, §3
Leaves of cucumber were immersed in the test solution at the appropriate concentration, and the leaves were dried in air. The leaves were then put in a plastic cup containing sterilized black soil and five Aulacophora femoralis at second instar larvae were released in the cup. The cups were placed in a temperature-controlled chamber at 25° C. After 7 days, the number of dead larvae was counted, and thus the insecticidal activity was calculated. An insecticidal activity of 100% means that all larvae were killed, whereas an insecticidal activity of 0% means that no larva was killed.

[1] = active compound concentration of 500 ppm, second instar larvae on cucumber leaves, after 7 days

| Compound | insecticidal activity (Spodoptera litura) | insecticidal activity (Aulacophora femoralis; [1]) | further results |
| --- | --- | --- | --- |
| O=C(Nc1c(I)cc(C(F)(C(F)(F)F)C(F)(F)C(F)(F)F)cc1SC(F)(F)F)c1ccc2ncccc2c1 (stereo not shown) [2-186] | 100% |  |  |
| O=C(Nc1c(I)cc(C(F)(C(F)(F)F)C(F)(F)F)cc1I)c1ccc2c(ccc[n+]2[O-])c1 [2-68] | 100% | 100% |  |
| CC(C)c1cc(C(F)(C(F)(F)F)C(F)(F)F)cc(C(C)C)c1NC(=O)c1ccc2c(ccc[n+]2[O-])c1 [2-57] |  | 100% |  |
| CCCc1cc(C(F)(C(F)(F)F)C(F)(F)C(F)(F)F)cc(I)c1NC(=O)c1ccc2ncccc2c1 (stereo not shown) [2-102] | 100% |  |  |
| CCc1cc(C(F)(C(F)(F)F)C(F)(F)F)cc(C)c1NC(=O)c1ccc2cc(C#N)ccc2c1 [Compound No. 1-4, 6-cyano-N-[2-ethyl-4-(1,1,1,2,3,3,3-heptafluoropropan-2-yl)-6-methylphenyl]-2-naphthamide] |  |  | pest or weed control at 100 ppm (Spodoptera litura): 100% |
| CCCc1cc(C(F)(C(F)(F)F)C(F)(F)C(F)(F)F)cc(Br)c1NC(=O)c1ccc2nc(C#N)ccc2c1 (stereo not shown) [2-164] | 100% | 100% |  |
| O=C(Nc1c(I)cc(C(F)(C(F)(F)F)C(F)(F)C(F)(F)F)cc1OC(F)F)c1ccc2c(ccc[n+]2[O-])c1 (stereo not shown) [Compound No. 2-175, N-[2-(difluoromethoxy)-6-iodo-4-(1,1,1,2,3,3,4,4,4-nonafluorobutan-2-yl)phenyl]quinoline-6-carboxamide N-oxide] |  |  | pest or weed control at 100 ppm (Spodoptera litura): 100%; pest or weed control at 500 ppm (Aulacophora femoralis; [1]): 100% |
| CCCc1cc(C(F)(C(F)(F)F)C(F)(F)C(F)(F)F)cc(I)c1NC(=O)c1ccc2c(ccc[n+]2[O-])c1 (stereo not shown) [2-103] | 100% |  |  |
| CCOC(c1cc(C)c(NC(=O)c2ccc3nc(C#N)ccc3c2)c(CC)c1)(C(F)(F)F)C(F)(F)F [2-74] | 100% | 100% |  |
| Cc1cc(C(F)(C(F)(F)F)C(F)(F)F)cc(C)c1NC(=O)c1ccc2nc(Br)ccc2c1 [2-18] |  | 100% |  |
| O=C(Nc1c(Br)cc(C(F)(C(F)(F)F)C(F)(F)F)cc1OC(F)F)c1ccc2ncccc2c1 [Compound No. 2-152, N-[2-bromo-(1,1,1,2,3,3,3-heptafluoropropan-2-yl)-6-(difluoromethoxy)phenyl]quinoline-6-carboxamide] |  |  | pest or weed control at 100 ppm (Spodoptera litura): 100%; pest or weed control at 500 ppm (Aulacophora femoralis; in Cucumis sativus): 100% |
| Cc1cc(C(F)(C(F)(F)F)C(F)(F)F)cc(C(C)C)c1NC(=O)c1ccc2c(ccc[n+]2[O-])c1 [2-36] |  | 100% |  |
| N#Cc1ccc2cc(C(=O)Nc3c(Br)cc(C(F)(C(F)(F)F)C(F)(F)C(F)(F)F)cc3SC(F)(F)F)ccc2n1 (stereo not shown) [2-185] | 100% | 100% |  |
| N#Cc1ccc2cc(C(=O)Nc3c(I)cc(C(F)(C(F)(F)F)C(F)(F)C(F)(F)F)cc3SC(F)(F)F)ccc2n1 (stereo not shown) [2-188] | 100% | 100% |  |
| CCc1cc(C2(F)C(F)(F)C(F)(F)C(F)(F)C(F)(F)C2(F)F)cc(C)c1NC(=O)c1ccc2ncccc2c1 [2-128] | 100% |  |  |
| O=C(Nc1c(Br)cc(C(F)(C(F)(F)F)C(F)(F)Br)cc1Br)c1ccc2ncccc2c1 (stereo not shown) [2-195] | 100% | 100% |  |
| O=C(Nc1c(Cl)cc(C(F)(C(F)(F)F)C(F)(F)F)cc1Cl)c1ccc2ncccc2c1 [2-59] |  | 100% |  |
| O=C(Nc1c(I)cc(C(F)(C(F)(F)F)C(F)(F)C(F)(F)F)cc1I)c1ccc2ncccc2c1 (stereo not shown) [2-111] | 100% |  |  |
| N#Cc1ccc2cc(C(=O)Nc3c(Cl)cc(C(F)(C(F)(F)F)C(F)(F)F)cc3Cl)ccc2n1 [2-61] | 100% | 100% |  |
| Cc1cc(C(F)(C(F)(F)F)C(F)(F)F)cc(C)c1NC(=O)c1ccc2nc(Cl)ccc2c1 [Compound No. 2-17, 2-chloro-N-[4-(1,1,1,2,3,3,3-heptafluoropropan-2-yl)-2,6-dimethylphenyl]quinoline-6-carboxamide] |  |  | pest or weed control at 100 ppm (Spodoptera litura): 100%; pest or weed control at 500 ppm (Aulacophora femoralis; [1]): 100% |

| Compound | insecticidal activity (Spodoptera litura) | insecticidal activity (Aulacophora femoralis; [1]) | further results |
| --- | --- | --- | --- |
| N#Cc1ccc2cc(C(=O)Nc3c(Br)cc(OC(F)(F)F)cc3Br)ccc2n1 [2-139] |  | 100% |  |
| CC(C)c1cc(C(F)(C(F)(F)F)C(F)(F)C(F)(F)F)cc(I)c1NC(=O)c1ccc2nc(C#N)ccc2c1 (stereo not shown) [2-167] | 100% | 100% |  |
| N#Cc1ccc2cc(C(=O)Nc3c(Br)cc(C(F)(C(F)(F)F)C(F)(F)C(F)(F)F)cc3Br)ccc2[n+]1[O-] (stereo not shown) [2-270] | 100% |  |  |
| N#Cc1ccc2cc(C(=O)Nc3c(Br)cc(SC(F)(F)F)cc3Br)ccc2n1 [2-140] | 100% | 100% |  |
| CCc1cc(C(Oc2ccc(Cl)cc2)(C(F)(F)F)C(F)(F)F)cc(C)c1NC(=O)c1ccc2ncccc2c1 [2-78] | 100% | 100% |  |
| O=C(Nc1c(I)cc(C(F)(C(F)(F)F)C(F)(F)Br)cc1I)c1ccc2ncccc2c1 (stereo not shown) [2-198] | 100% |  |  |
| CCCc1cc(C(F)(C(F)(F)F)C(F)(F)C(F)(F)F)cc(I)c1NC(=O)c1ccc2nc(C#N)ccc2c1 (stereo not shown) [2-104] | 100% | 100% |  |
| CCCc1cc(C(F)(C(F)(F)F)C(F)(F)C(F)(F)F)cc(Br)c1NC(=O)c1ccc2ncccc2c1 (stereo not shown) [2-162] | 100% | 100% |  |
| N#Cc1ccc2cc(C(=O)Nc3c(I)cc(C(F)(C(F)(F)F)C(F)(F)F)cc3SC(F)(F)F)ccc2n1 [2-161] | 100% |  |  |
| CCc1cc(C(F)(C(F)(F)F)C(F)(F)Br)cc(C)c1NC(=O)c1ccc2c(ccc[n+]2[O-])c1 (stereo not shown) [2-193] |  | 100% |  |
| Cc1cc(C(F)(C(F)(F)F)C(F)(F)F)cc(C(C)C)c1NC(=O)c1ccc2nc(C#N)ccc2c1 [2-37] | 100% | 100% |  |
| N#Cc1ccc2cc(C(=O)Nc3c(I)cc(C(F)(C(F)(F)F)C(F)(F)C(F)(F)F)cc3I)ccc2n1 (stereo not shown) [2-113] | 100% | 100% |  |
| CCc1cc(C(F)(C(F)(F)F)C(F)(F)C(F)(F)F)cc(C)c1NC(=O)c1ccc2c(ccc[n+]2[O-])c1 (stereo not shown) [2-89] |  | 100% |  |
| Cc1cc(C(F)(C(F)(F)F)C(F)(F)F)cc(C)c1NC(=O)c1ccc2c(ccc(C#N)[n+]2[O-])c1 [Compound No. 2-21] | 100% | 100% |  |
| Cc1cc(C(F)(C(F)(F)F)C(F)(F)F)cc(C)c1NC(=O)c1ccc2nccc(Br)c2c1 [2-13] | 100% | 100% |  |
| O=C(Nc1c(Cl)cc(C(F)(C(F)(F)F)C(F)(F)F)cc1OC(F)F)c1ccc2ncccc2c1 [Compound No. 2-229, N-[2-chloro-(1,1,1,2,3,3,3-heptafluoropropan-2-yl)-6-(difluoromethoxy)phenyl]quinoline-6-carboxamide] |  |  | pest or weed control at 500 ppm (Aulacophora femoralis; [1]): 100% |
| CCc1cc(C(F)(C(F)(F)F)C(F)(F)C(F)(F)F)cc(C)c1NC(=O)c1ccc(N=c2ssnc2Cl)c(Br)c1 (stereo not shown) [5-4] | 100% |  |  |
| O=C(Nc1c(I)cc(C(F)(C(F)(F)F)C(F)(F)C(F)(F)F)cc1I)c1ccc2c(ccc[n+]2[O-])c1 (stereo not shown) [2-112] |  | 100% |  |
| CCc1cc(C2(F)C(F)(F)C(F)(F)C(F)(F)C(F)(F)C2(F)F)cc(C)c1NC(=O)c1ccc2c(ccc[n+]2[O-])c1 [2-129] | 100% |  |  |
